Laboratory results: paper PMC7866984, “Molecular Structure, In Vitro Anticancer Study and Molecular Docking of New Phosphate Derivatives of Betulin” (Molecules, 2021)
Read-outs that look alike come from different tables or passages of the source.

Experiments:
[1] = system: glioblastoma (SNB-19) cells; assay: WST-1 cell viability assay, SNB-19; type: cell-based, human; conditions: WST-1, 72 h
Procedure: (§1) Evaluation of the effect of new betulin derivatives on the viability of the cultured cells was performed using the WST-1(water soluble tetrazolium salt) assay. Betulin 1 and cisplatin were used as the reference compounds.
(§2) The synthesized compounds and references were tested for cytotoxic activity in vitro against human cancer cell lines such as amelanotic melanoma (C-32, ATCC, Rockville, MD, USA), glioblastoma (SNB-19, DSMZ, Braunschweig, Germany), and breast cancer (T47D, and MDA-MB-231, ATCC, Rockville, MD, USA). Cell cultures were maintained using DMEM (Lonza, Basel, Switzerland) supplemented with 10% fetal bovine serum (FBS) (Biological Industries Cromwell, CT, USA) and penicillin (10,000 U/mL) –streptomycin (10 mg/mL) mix (Lonza, Basel, Switzerland).
(§3) Cultures were performed in 96-well plates (Nunc Thermo Fisher Scientific, Waltham, MA, USA). Cells were seeded at 5 × 10^4/well and incubated for 24 h (at 37 °C, 5% CO2, constant humidity). Then, the medium was replaced with a fresh one with the addition of test compounds in the concentration: 25; 12.5; 6.25; 3.12; 1.56; 0.78; 0.39; 0 µg/mL and incubated again for a further 72 h. After this time, the WST-1 test (Roche Molecular Biochemicals, Mannheim, Germany) was performed to assess the metabolic activity of the cells. The principle of the WST-1 colorimetric test is based on the ability of live cells to decompose bright red tetrazole salts of WST-1 to dark red formazan. The reaction is mediated by mitochondrial dehydrogenases and correlates with the number of cells and their metabolic activity. The absorbance was measured at λ = 450 nm with a UVM340 microplate reader (Biogenet, Józefów, Poland). Results were expressed as a mean value of at least three independent experiments performed in triplicate.

[2] = system: amelanotic melanoma (C-32) cells; assay: WST-1 cell viability assay, C-32; type: cell-based, human; conditions: WST-1, 72 h
Procedure: as §1, §2, §3

[3] = system: breast cancer T47D cells; assay: WST-1 cell viability assay, T47D; type: cell-based, human; conditions: for IC50: read-out: IC50 ± SD, T47D
Procedure: as §1, §2, §3

[4] = system: breast cancer MDA-MB-231 cells; assay: WST-1 cell viability assay, MDA-MB-231; type: cell-based, human
Procedure: as §1, §2, §3

[5] = RP-TLC experimental lipophilicity; type: physicochemical; conditions: for RM0 / logPTLC: RP-TLC; for RM0: acetone/Tris buffer pH 7.4, extrapolated to zero acetone; for logPTLC: from RM0 by calibration equation; for -b: slope of regression plot RM = RM0 + bC
Source text: Lipophilicity is an important physicochemical parameter related to the biological activity of compounds. This descriptor, contained in Lipiński’s rule of five, concerns the transport of a compound through the biological membrane system and the formation of a compound–receptor complex. To assess the lipophilic nature of triterpenoids 3–5, 6a–6e, and 7a–7e, the reverse phase chromatography (RP-TLC) method was used (chromatographic procedure by RP-TLC is included in the Supplementary Materials). The theoretical characteristics of the chromatographic parameters (RM0, log PTLC) of the tested derivatives were also performed. […]
Chromatographic procedure by RP-TLC
The experimental lipophilicity parameters was determined using reversed-phase thin-layer chromatography (RP-TLC). The stationary phase was an aluminium backed silica gel RP-18 F254 S plates (Merck, Darmstadt, Germany). Chloroform solutions of reference compounds […]
(acetanilide, 4-bromoacetophenone, benzophenone, anthracene, DDT) and triterpenes 3-5, 6a-6e and 7a-7e were spotted on to the plates in the amount of 2 µL. The chromatograms were performed in triplicate for each compound. The chromatographic chambers were filled of mobile phases consisting of a mixture of acetone (POCh, Gliwice, Poland) and aqueous solution of buffer Tris [(tris-hydroxymethyl)aminomethane] (Fluka, Loughborough, 0.2 M, pH 7.4). The percent acetone volume was varied within the range of 90-60%, in 5% increments. The spots of compounds were visualized by spraying the plates with 10% ethanolic solution of sulphuric acid (VI) and heating for 3 min at 110°C [60]]. The RM values were calculated by the equation RM = log (1/Rf-1) on the basis of average Rf values. The RM0 parameters were obtained by extrapolating on the acetone content to zero, according to the equation RM = RM0 + bC (C – the percentage concentration of acetone in the mobile phase, b – the slope of the regression plot).
The experimental lipophilicity as log PTLC for triterpenes 3-5, 6a-6e and 7a-7e was calculated […]
obtained on the correlation between the literature log Plit values and the experimental RM0 values […]
Table S5. The theoretical values of lipophilicity for tested compounds 3-5, 6a-6e and 7a- […]
Table S6. The correlation matrix for theoretically obtained lipophilicity parameters of compounds 3-5, 6a-6e and 7a-7e. […]

[6] = Homo sapiens, SNB-19, 72 h, Table 5, betulonic/betulinic acid derivatives, read-out: IC50, SNB-19
[7] = Homo sapiens, C32, 72 h, Table 5, betulonic/betulinic acid derivatives, read-out: IC50, C-32
[8] = Homo sapiens, SNB-19, 72 h, read-out: IC50 ± SD, SNB-19
[9] = Homo sapiens, C32, 72 h, read-out: IC50 ± SD, C-32

Work on `C=C(CP(=O)(OCC)OCC)[C@@H]1CC[C@]2(C(=O)O)CC[C@]3(C)C(CCC4[C@@]5(C)CCC(OC(C)=O)C(C)(C)C5CC[C@]43C)C12` (some centres unmarked) [R=30-P(O)(OC2H5)2, R1=CH3C(O)O, reference compound] yielded an IC50 [1, 6] of 1.29 ± 0.15 µM and an IC50 [2, 7] of 30.7 ± 2.17 µM.

`CCOP(=O)(C=C(C)C1CCC2(C(=O)O)CCC3(C)C(CCC4C5(C)CCC(O)C(C)(C)C5CCC43C)C12)OCC` (centres unmarked) [R=29-P(O)(OC2H5)2, R1=OH, reference compound] gave an IC50 [1, 6] of 7.67 ± 1.57 µM and an IC50 [2, 7] of 47.5 ± 2.96 µM.

In the case of `N.N.[Cl][Pt][Cl]` [Cisplatin, reference compound], the IC50 ([1]; read-out: IC50 ± SD, SNB-19) is reported as 5.29 ± 0.12 µM, the IC50 ([2]; read-out: IC50 ± SD, C-32) is reported as 4.29 ± 0.65 µM and the IC50 ([3]; WST-1, 72 h) is reported as 6.26 ± 1.24 µM. For the same molecule, the IC50 ([4]; WST-1, 72 h, read-out: IC50 ± SD, MDA-MB-231) was 5.47 ± 0.05 µM.

`C#CCOC(=O)OC[C@]12CC[C@@H](C(=C)COP(=O)(OCC)OCC)C1C1CCC3[C@@]4(C)CC[C@H](OC(=O)OCC#C)C(C)(C)C4CC[C@@]3(C)[C@]1(C)CC2` (some centres unmarked) [Compound 6e, 30-Diethoxyphosphoryloxy-3,28-dipropargyloxycarbonyloxybetulin] showed an IC50 [1, 8] of 9.23 ± 0.57 µM, a melting point of 129 to 131 °C and an RM0 [5] of 6.490. The logPTLC [5] was 8.419, the “-b” value [5] was 0.076 and the IC50 [2, 9] was 11.4 ± 0.76 µM. The IC50 ([3]; Homo sapiens, T47D, 72 h) was > 50 µM.

`C#CCOC(=O)OC[C@]12CC[C@@H](C(=C)COP(=O)(OCC)OCC)C1C1CCC3[C@@]4(C)CC[C@H](O)C(C)(C)C4CC[C@@]3(C)[C@]1(C)CC2` (some centres unmarked) [Compound 7e, 30-Diethoxyphosphoryloxy-28-propargyloxycarbonyloxybetulin] showed an IC50 [1, 8] of 1.59 ± 0.09 µM, a melting point of 172 to 174 °C and an RM0 [5] of 5.302. For the same molecule, the logPTLC [5] was 6.916, the “-b” value [5] was 0.063 and the IC50 [2, 9] was 3.97 ± 0.86 µM. The IC50 ([3]; Homo sapiens, T47D, 72 h) was > 50 µM.

For `C=C(C)[C@@H]1CC[C@]2(C(=O)O)CC[C@]3(C)[C@H](CC[C@@H]4[C@@]5(C)CC[C@H](O)C(C)(C)[C@@H]5CC[C@]43C)[C@@H]12` [betulinic acid, reference compound], the IC50 ([1]; Homo sapiens, SNB-19, Table 5, betulonic/betulinic acid derivatives, read-out: IC50, SNB-19) was 20.1 ± 1.26 µM and the IC50 ([2]; Homo sapiens, C32, Table 5, betulonic/betulinic acid derivatives, read-out: IC50, C-32) was 8.63 ± 0.9 µM.

In the case of `C=C(COP(=O)(OCC)OCC)[C@@H]1CC[C@]2(C(=O)O)CC[C@]3(C)C(CCC4[C@@]5(C)CCC(=O)C(C)(C)C5CC[C@]43C)C12` (some centres unmarked) [Compound 8], the IC50 [1, 6] is reported as 45.8 ± 5.27 µM, the IC50 [2, 7] is reported as 45.7 ± 6.85 µM and the “activity against T47D (in words)” value [3] is reported as “no activity”. For the same molecule, the “activity against MDA-MB-231 (in words)” value [4] was “no activity”.

For `C=C(CP(=O)(OCC)OCC)[C@@H]1CC[C@]2(C(=O)O)CC[C@]3(C)C(CCC4[C@@]5(C)CCC(O)C(C)(C)C5CC[C@]43C)C12` (some centres unmarked) [R=30-P(O)(OC2H5)2, R1=OH, reference compound], the IC50 [1, 6] was > 50 µM and the IC50 [2, 7] was > 50 µM.

Molecule `CCOP(=O)(C=C(C)C1CCC2(C(=O)O)CCC3(C)C(CCC4C5(C)CCC(=O)C(C)(C)C5CCC43C)C12)OCC` (centres unmarked) [R=29-P(O)(OC2H5)2, R1=O=, reference compound] has an IC50 [1, 6] of 1.64 ± 0.18 µM and an IC50 [2, 7] of 45.5 ± 3.72 µM.
